Activity calls are given as the source filed them.
Tests used:
[1] = target: E3 ubiquitin-protein ligase Mdm2 (Homo sapiens, UniProt Q00987); experiment: enhancers of MDM2-luciferase reporter signal, concentration-effect titration, project on inhibitors of MDM2 ubiquitin ligase, cellular assay, luminescent readout, 384-well plate format (AID 1394); assay type: functional;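 further: MDM2 E3 inhibitors raise luminescence so EC50 is for signal enhancement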
[2] = target: NADPH oxidase 1 (Homo sapiens, UniProt Q9Y5S8); experiment: Late-stage luminescence-based cell-based dose response assay to identify inhibitors of NADPH oxidase 1 (NOX1): Purchased analogs 2.; assay type: functional
[3] = cytotoxicity toward NIH3T3 fibroblasts, dose response, counter-screen, cell-based, ATP luminescence, mouse fibroblasts (AID 2010); assay type: functional;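 further: cells exposed to compound for about 90 hours before reading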
[4] = tested on: Streptococcus sp. 'group A'; experiment: growth inhibition of control SK(-) GAS strain, dose response, counter-screen for streptokinase expression inhibitor project, luminescence, kanamycin, BacTiterGlo, confirmation (AID 1900); assay type: functional, organism-based
[5] = inhibitors of intracellular T. cruzi replication, confirmation, NIH3T3 host cells, beta-gal luminescence (AID 2044); assay type: functional, cell-based;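 further: intracellular parasites grown in NIH/3T3 mouse fibroblasts as host cells; luminescent beta-galactosidase reporter signal from transgenic T. cruzi replicating inside host cells; inhibitors lower the luminescence signal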
[6] = target: Voltage-gated inwardly rectifying potassium channel KCNH2 (Homo sapiens, UniProt Q12809); experiment: hERG protection from proarrhythmic block, potency, dose response, cell-based, thallium flux (AID 2121); assay type: ADME
[7] = target: T1, Streptokinase A (Streptococcus pyogenes serotype M1, UniProt P10520); experiment: S. pyogenes streptokinase expression inhibitors, potency, dose response, plasminogen activation absorbance, OD405 (AID 1914); assay type: functional, Streptococcus pyogenes M1 GAS;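 further: secreted streptokinase activity via plasminogen activation per viability signal from cell pellet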
T1 sequence (P10520 whole entry): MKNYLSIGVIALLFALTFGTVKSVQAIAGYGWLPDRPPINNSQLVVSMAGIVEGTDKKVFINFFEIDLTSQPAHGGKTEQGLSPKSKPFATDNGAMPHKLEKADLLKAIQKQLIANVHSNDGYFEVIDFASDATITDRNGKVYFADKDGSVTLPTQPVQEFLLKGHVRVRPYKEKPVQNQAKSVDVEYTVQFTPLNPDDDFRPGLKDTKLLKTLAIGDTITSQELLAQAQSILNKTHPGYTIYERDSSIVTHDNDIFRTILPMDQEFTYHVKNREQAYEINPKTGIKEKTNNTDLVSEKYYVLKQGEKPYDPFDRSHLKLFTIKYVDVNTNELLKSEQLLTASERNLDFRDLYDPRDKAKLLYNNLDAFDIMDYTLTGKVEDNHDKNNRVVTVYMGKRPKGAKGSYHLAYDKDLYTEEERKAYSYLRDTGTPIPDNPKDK

[8] = tested on: Streptococcus; experiment: Group A Streptococcus viability loss, dose response, counter-screen for streptokinase expression inhibitor project, luminescence, BacTiterGlo (AID 1915); assay type: functional, organism-based;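 further: potency for reduction of bacterial viability or growth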
[9] = target: Genome polyprotein (Hepatitis C virus, UniProt Q2Q167); experiment: HCV core protein dimerization inhibitors, dose response, biochemical, TR-FRET (AID 2159); design: species or system Hepacivirus hominis;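 further: blocks dimerization of HCV core protein measured by TR-FRET between tagged core106 pairs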
[10] = target: Serine/threonine-protein phosphatase (Homo sapiens, UniProt Q9BPW0); experiment: PP5 phosphatase inhibitors, dose response, biochemical, fluorescence (AID 2395)
[11] = tested on: INS1; experiment: beta cell apoptosis inhibitors, cytokine rescue, dose response, luminescence, retest (AID 449756); assay type: functional, cell-based; conditions: Rattus norvegicus, INS1;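 further: cell death triggered by IL-1 beta plus TNF-alpha plus IFN-gamma mixture; protective hits raise ATP signal compared with cytokine alone wells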
[12] = target: Serine/threonine-protein phosphatase PP1-alpha catalytic subunit (Homo sapiens, UniProt P62136); experiment: PP1 phosphatase inhibitors, dose response, biochemical, fluorescence (AID 2394)
[13] = target: Induced myeloid leukemia cell differentiation protein Mcl-1 (Homo sapiens, UniProt Q07820); assay type: functional
[14] = target: Mitochondrial peptide methionine sulfoxide reductase (Bos taurus, UniProt P54149); experiment: Absorbance-based biochemical high throughput dose response assay for activators of Methionine sulfoxide reductase A (MsrA).; assay type: functional
[15] = target: T2, Bcl-2-related protein A1 (Mus musculus, UniProt Q07440); assay type: functional;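 further: confirmatory dose–response counterscreen on Bfl-1, used to check hits from a UBC13 polyubiquitin inhibitor campaign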
T2 sequence (Q07440 whole entry): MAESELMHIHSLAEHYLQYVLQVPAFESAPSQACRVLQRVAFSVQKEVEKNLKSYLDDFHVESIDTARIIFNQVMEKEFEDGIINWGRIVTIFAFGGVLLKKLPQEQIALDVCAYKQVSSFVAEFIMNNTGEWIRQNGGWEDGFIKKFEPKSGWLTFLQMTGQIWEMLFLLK

[16] = target: Vasopressin V1a receptor (Homo sapiens, UniProt P37288); experiment: Fluorescence-based cell-based high throughput dose response screening assay for agonists of the vasopressin 1 receptor (V1R).; assay type: functional
[17] = target: T3, Ubiquitin-conjugating enzyme E2 N (Homo sapiens, UniProt P61088); assay type: functional
T3 sequence (P61088 whole entry): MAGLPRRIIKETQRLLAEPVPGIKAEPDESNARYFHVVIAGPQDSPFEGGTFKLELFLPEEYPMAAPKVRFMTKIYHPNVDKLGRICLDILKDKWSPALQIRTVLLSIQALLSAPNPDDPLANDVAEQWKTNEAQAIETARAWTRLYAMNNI

[18] = target: Oxytocin receptor (Homo sapiens, UniProt P30559); experiment: Counterscreen for vasopressin 1 receptor (V1R) agonists: Fluorescence-based cell-based high throughput dose response assay for agonists of the Oxytocin Receptor (OXTR). [Related pubchem assays: 2435 (Primary screen (OXTR agonists in singlicate)), 434964 (Confirmation screen (V1R agonists in triplicate)), 434969 (Counterscreen (OXTR agonists in …; assay type: functional
[19] = target: T4, Apoptotic protease-activating factor 1 (Homo sapiens, UniProt O14727); assay type: functional
T4 sequence (O14727 whole entry): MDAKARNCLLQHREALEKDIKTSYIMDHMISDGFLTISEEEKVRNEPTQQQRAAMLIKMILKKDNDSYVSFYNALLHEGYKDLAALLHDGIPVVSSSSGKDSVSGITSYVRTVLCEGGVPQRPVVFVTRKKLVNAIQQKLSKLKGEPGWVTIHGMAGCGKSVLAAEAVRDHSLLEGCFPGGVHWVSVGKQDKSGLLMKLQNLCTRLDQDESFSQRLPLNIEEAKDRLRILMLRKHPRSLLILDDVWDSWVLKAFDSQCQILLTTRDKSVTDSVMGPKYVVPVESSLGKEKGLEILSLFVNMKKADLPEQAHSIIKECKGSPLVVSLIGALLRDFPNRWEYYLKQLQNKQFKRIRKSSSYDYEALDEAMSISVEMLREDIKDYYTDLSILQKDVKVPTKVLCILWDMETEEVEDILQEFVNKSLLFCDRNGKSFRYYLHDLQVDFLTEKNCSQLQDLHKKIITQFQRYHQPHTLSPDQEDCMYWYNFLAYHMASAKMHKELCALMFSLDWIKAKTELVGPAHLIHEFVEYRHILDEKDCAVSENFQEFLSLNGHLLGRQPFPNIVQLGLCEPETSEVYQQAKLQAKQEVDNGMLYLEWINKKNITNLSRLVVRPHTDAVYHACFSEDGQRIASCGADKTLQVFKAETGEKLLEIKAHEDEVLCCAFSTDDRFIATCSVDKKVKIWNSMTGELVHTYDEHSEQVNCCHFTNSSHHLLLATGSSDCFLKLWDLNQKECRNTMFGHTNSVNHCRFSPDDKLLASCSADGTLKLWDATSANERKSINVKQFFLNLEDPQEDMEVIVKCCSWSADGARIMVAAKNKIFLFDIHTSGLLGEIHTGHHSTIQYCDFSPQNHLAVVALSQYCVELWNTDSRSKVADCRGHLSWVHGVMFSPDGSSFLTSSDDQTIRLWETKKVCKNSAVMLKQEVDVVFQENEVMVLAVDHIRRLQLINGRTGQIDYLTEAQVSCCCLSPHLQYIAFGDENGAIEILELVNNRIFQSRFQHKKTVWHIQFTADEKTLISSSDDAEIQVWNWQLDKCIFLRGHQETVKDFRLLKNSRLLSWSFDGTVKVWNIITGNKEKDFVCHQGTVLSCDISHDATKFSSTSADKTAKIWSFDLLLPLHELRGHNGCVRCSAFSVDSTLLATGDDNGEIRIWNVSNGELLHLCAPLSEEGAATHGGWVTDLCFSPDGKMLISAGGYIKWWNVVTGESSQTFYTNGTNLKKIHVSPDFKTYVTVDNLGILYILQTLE

[20] = target: T3, Ubiquitin-conjugating enzyme E2 N; assay type: functional; remark: listed apart in the source
[21] = target: Melanocortin receptor 4 (Homo sapiens, UniProt P32245); assay type: functional, cell-based;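 further: Cell-based assay with luminescence read-out, confirmatory dose-response testing for agonist activity of biased ligands at MC4R; human U2OS cells with tagged receptor and beta-arrestin; potency of agonists that increase receptor coupling to beta-arrestin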
[22] = half-maximal inhibitory concentration for glucagon-like peptide-1 release, STC-1 cell line, dose-response (AID 1117345); assay type: functional, cell-based
[23] = Glucagon-like peptide 1 release potency, NCI-H716 cell line, dose-response, half-maximal inhibitory concentration (AID 1117344); assay type: functional, cell-based
[24] = target: T5, DNA repair protein RAD52 homolog (Homo sapiens, UniProt P43351); assay type: functional, biochemical
T5 sequence (P43351 whole entry): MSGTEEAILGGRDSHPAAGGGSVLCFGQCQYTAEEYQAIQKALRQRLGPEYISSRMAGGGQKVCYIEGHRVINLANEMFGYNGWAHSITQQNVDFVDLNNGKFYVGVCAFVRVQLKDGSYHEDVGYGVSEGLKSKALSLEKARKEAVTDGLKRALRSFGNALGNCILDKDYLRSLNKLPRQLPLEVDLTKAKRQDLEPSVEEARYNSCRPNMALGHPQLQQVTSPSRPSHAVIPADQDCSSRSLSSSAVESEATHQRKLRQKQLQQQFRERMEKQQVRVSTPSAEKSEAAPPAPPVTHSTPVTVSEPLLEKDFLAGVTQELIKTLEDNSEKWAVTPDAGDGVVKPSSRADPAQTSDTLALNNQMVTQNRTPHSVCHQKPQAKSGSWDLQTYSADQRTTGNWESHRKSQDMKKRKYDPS

Voltage-gated inwardly rectifying potassium channel KCNH2, sequence (Q12809 whole entry): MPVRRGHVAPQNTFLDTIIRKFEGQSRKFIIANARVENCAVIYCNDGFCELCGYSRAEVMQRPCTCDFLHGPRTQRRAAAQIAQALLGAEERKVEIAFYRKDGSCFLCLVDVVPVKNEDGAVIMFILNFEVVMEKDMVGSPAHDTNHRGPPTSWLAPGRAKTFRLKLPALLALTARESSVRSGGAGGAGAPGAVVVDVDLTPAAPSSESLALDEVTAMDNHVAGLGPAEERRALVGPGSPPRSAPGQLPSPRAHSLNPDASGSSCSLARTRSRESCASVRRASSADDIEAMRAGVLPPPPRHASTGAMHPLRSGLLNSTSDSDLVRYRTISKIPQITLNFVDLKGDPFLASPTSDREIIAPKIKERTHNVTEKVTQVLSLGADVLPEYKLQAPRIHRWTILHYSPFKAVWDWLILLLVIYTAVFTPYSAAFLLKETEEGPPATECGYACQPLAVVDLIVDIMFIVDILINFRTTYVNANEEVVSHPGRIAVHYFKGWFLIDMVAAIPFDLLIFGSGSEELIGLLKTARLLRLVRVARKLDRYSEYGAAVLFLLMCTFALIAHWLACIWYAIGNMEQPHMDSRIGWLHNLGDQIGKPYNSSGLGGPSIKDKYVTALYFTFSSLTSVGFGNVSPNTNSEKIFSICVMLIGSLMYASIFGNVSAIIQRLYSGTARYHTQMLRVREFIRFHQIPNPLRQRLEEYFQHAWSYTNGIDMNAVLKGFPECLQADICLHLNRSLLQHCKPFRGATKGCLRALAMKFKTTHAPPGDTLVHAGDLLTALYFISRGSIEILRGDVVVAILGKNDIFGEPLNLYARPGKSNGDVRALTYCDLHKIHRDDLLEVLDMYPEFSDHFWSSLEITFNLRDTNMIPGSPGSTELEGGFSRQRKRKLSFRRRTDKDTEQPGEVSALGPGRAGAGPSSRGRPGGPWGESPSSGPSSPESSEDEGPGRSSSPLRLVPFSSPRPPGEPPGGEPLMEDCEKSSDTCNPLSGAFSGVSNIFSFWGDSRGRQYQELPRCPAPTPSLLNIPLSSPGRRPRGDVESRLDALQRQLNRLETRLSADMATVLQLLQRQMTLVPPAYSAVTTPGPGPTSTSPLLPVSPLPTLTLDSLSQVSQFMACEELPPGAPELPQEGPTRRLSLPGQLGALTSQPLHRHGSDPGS
Mitochondrial peptide methionine sulfoxide reductase, sequence (P54149 whole entry): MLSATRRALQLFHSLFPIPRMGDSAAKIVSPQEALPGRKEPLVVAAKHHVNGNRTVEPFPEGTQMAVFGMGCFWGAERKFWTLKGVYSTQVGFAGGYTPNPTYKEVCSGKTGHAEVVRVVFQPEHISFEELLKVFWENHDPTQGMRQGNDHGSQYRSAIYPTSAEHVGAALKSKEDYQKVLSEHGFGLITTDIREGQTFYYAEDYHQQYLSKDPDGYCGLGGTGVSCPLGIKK
Oxytocin receptor, sequence (P30559 whole entry): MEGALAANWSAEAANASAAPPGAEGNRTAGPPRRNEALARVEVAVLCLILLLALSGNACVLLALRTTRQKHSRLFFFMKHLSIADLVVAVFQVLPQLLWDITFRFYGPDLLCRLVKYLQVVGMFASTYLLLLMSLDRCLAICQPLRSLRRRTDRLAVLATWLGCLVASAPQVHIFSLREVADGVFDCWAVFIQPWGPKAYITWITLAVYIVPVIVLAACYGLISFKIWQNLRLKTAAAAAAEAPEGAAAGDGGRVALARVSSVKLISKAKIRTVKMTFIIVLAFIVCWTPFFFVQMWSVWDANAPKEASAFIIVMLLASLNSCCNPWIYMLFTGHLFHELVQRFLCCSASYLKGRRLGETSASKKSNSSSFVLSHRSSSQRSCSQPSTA
Vasopressin V1a receptor, sequence (P37288 whole entry): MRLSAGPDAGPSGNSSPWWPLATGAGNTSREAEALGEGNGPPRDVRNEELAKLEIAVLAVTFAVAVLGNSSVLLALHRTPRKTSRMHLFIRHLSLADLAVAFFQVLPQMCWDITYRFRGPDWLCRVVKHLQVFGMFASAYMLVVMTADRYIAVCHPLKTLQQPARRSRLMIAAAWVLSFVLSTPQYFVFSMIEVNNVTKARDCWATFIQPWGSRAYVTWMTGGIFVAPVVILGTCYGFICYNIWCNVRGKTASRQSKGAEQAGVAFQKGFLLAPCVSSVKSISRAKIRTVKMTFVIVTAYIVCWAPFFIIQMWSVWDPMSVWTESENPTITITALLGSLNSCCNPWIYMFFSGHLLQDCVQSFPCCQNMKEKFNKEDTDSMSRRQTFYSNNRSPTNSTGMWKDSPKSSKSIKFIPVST
NADPH oxidase 1, sequence (Q9Y5S8 whole entry): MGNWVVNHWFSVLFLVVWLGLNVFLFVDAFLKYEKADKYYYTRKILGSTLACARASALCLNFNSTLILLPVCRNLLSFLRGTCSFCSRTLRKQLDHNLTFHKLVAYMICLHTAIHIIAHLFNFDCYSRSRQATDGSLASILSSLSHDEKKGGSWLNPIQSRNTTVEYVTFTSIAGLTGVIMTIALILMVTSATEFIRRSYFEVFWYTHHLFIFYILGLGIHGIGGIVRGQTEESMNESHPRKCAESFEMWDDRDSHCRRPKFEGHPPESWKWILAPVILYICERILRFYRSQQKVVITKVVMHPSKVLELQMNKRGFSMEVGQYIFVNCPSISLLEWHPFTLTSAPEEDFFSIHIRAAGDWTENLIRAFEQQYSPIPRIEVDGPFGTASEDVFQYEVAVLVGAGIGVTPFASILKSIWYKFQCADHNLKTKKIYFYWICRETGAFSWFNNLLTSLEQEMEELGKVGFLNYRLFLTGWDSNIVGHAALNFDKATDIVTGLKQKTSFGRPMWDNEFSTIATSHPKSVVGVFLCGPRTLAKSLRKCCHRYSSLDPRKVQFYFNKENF
Serine/threonine-protein phosphatase PP1-alpha catalytic subunit, sequence (P62136 whole entry): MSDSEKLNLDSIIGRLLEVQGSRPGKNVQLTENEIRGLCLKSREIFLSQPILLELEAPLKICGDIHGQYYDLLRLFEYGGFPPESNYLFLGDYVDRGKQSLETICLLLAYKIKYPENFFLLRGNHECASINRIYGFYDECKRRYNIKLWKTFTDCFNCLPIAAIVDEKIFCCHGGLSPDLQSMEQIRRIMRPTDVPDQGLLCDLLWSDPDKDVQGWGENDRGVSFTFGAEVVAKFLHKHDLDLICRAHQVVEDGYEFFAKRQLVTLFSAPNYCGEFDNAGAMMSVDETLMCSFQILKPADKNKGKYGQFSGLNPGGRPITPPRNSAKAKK
Serine/threonine-protein phosphatase, sequence (Q9BPW0 whole entry): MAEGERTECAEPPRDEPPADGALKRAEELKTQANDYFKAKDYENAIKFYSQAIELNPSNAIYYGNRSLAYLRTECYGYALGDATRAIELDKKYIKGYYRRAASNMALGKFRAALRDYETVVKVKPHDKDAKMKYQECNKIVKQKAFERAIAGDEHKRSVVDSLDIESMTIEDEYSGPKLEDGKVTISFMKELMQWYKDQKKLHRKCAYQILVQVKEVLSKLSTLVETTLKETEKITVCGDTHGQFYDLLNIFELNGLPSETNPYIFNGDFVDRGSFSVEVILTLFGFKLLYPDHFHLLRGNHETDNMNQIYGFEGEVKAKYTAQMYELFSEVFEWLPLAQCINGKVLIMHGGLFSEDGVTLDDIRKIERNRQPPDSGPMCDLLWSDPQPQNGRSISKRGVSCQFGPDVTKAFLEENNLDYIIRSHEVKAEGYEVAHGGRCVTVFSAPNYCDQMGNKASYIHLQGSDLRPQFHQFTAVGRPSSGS
E3 ubiquitin-protein ligase Mdm2, sequence (Q00987 whole entry): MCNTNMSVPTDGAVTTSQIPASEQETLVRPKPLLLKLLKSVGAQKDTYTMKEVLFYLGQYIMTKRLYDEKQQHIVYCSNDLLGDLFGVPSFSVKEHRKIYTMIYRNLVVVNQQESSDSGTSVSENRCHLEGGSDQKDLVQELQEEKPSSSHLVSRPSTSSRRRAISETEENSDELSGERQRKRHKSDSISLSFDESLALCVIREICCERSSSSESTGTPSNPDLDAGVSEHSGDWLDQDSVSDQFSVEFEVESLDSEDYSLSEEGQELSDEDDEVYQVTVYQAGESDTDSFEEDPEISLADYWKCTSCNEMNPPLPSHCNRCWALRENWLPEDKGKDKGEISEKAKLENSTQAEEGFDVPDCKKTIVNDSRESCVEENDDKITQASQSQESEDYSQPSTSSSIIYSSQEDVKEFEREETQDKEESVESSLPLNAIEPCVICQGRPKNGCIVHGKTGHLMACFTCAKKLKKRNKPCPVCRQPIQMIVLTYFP
Genome polyprotein, sequence (Q2Q167 whole entry): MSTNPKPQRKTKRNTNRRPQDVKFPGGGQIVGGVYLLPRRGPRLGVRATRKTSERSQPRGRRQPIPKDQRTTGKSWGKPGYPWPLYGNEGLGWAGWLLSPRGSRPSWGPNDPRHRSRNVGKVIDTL
Induced myeloid leukemia cell differentiation protein Mcl-1, sequence (Q07820 whole entry): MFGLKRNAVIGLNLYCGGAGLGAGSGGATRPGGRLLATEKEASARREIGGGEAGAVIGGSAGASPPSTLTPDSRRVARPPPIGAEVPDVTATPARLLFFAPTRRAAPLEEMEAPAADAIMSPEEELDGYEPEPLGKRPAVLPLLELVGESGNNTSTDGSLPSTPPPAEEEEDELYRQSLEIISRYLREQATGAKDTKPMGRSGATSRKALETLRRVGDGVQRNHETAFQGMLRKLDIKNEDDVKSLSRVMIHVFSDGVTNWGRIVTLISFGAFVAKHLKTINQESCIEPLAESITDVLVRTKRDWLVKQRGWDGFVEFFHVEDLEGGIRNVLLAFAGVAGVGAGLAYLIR
Melanocortin receptor 4, sequence (P32245 whole entry): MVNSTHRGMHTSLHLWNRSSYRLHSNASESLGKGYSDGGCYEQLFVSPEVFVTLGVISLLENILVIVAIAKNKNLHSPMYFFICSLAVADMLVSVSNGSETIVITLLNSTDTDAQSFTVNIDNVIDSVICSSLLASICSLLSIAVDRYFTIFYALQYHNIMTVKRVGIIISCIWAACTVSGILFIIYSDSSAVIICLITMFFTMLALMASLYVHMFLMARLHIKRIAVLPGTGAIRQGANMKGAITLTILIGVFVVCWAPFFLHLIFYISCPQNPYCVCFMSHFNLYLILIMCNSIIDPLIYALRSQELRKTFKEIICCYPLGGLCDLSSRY

For `CCOC(=O)C1CCN(C(=S)Nc2cc(C)ccc2C)CC1`, the EC50 [1] was 4.34 µM (not active).
For `COc1ccc(NS(=O)(=O)Cc2ccc(N)cc2)cc1`, the IC50 [2] was > 17 µM (not active).
With `CC(C)COc1ccc(-c2nn(-c3ccccc3)cc2C(=O)Nc2nccs2)cc1` the EC50 [3] was > 30 µM (not active), the EC50 [4] was 48.3 µM (active) and the EC50 [5] was 2.21 µM (active). For the same compound, the EC50 [6] was 1.04 µM (active), the EC50 [7] was > 150 µM (not active) and the EC50 [8] was > 150 µM (not active).
With `CC1(O)C(=O)C=C2C=C(c3ccc(C#N)cc3)OC=C2C1=O` (stereo unspecified) the IC50 [9] was > 49.8 µM (not active).
With `Cc1cc(C)c(S(=O)(=O)/N=C2/C=C(Sc3nc[nH]n3)C(=O)c3ccccc32)cc1C` the IC50 [10] was 4.19 µM (active), the AC50 [11] was 2.6 µM (active) and the IC50 [12] was 18.6 µM (not active). For the same compound, the IC50 [13] was 3.07 µM (active) and the EC50 [14] was > 104 µM (inactive).
With `C#CCOCCOCCOCCNc1nc(N2CCN(C(=O)CCCCCCCCCCNC(=O)[C@@H](CCC(=O)O)n3cc(CCCCCN)nn3)CC2)nc(N2CCN(C(=O)CCCCCCCCCCNC(=O)[C@H](CCCCN)n3cc(C[C@@H](C)CC)nn3)CC2)n1` the IC50 [15] was > 20 µM (inactive), the EC50 [16] was 8.37 µM (active) and the IC50 [17] was 11.4 µM (active). The EC50 [18] was > 29.9 µM (not active), the IC50 [19] was 27.2 µM (active) and the IC50 [20] was 4.52 µM (active).
With `CC(C)(C)CC(C)(C)c1ccc(OCCOCC[N+](C)(C)Cc2ccccc2)cc1` [BENZETHONIUM CHLORIDE] the EC50 [21] was > 89.2 µM (inactive), the IC50 [22] was 13.8 µM (inactive) and the IC50 [17] was > 20 µM (inactive). The IC50 [23] was 21.9 µM (inactive), the AC50 [24] was 31.3 µM (active) and the IC50 [19] was 23.5 µM (active).
